Measured values: ChEMBL document CHEMBL1201862, “PubChem BioAssay data set” (2004)
Activity calls are given as the source filed them.

Assays:
[1] = cytotoxicity in HEK-293T NF-kB-Luc cells, dose response, cytotoxicity control for B/T-cell NF-kB inhibitor project, cell-based, uHTS hits (AID 489019); assay type: functional;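 note: IC50 reflects cytotoxicity as loss of cell viability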
[2] = system: Jurkat; assay: antigen receptor-induced NF-kB inhibitors, dose response, Jurkat, luciferase reporter, luminescence, B- and T-cell (AID 489004); assay type: functional, cell-based; settings: Homo sapiens;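 note: NF-kB luciferase reporter Jurkat cells stimulated with PMA plus ionomycin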
[3] = biological target: T1, Polyadenylate-binding protein 1 (Homo sapiens, UniProt P11940); assay: PABP1 MLLE–PAM2 interaction inhibitors, dose response, miRNA deadenylation inhibitor project, biochemical, fluorescence polarization, Cy5-PAM2 peptide, secondary (AID 602260); assay type: functional; settings: read-out: IC50_Mean
[4] = biological target: Genome polyprotein (dengue virus type 2, UniProt P29990); assay: Dengue-2 NS5 methyltransferase inhibitors, primary screen, biochemical, confirmation dose response (AID 588689); assay type: functional
[5] = biological target: Glucose-6-phosphate 1-dehydrogenase (Homo sapiens, UniProt P11413); assay: human G6PD enzyme inhibitors, dose response, selectivity assay for P. falciparum G6PD inhibitor project, biochemical, fluorescence (AID 504792); assay type: functional
[6] = biological target: Cytochrome P450 2D6 (Homo sapiens, UniProt P10635);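 note: CYP2D6 member of a cytochrome P450 panel assay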
[7] = biological target: T2, Cytochrome P450 3A4 (Homo sapiens, UniProt P08684);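 note: CYP3A4 tested as one member of a cytochrome P450 panel screen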
[8] = cytotoxicity toward NIH3T3 fibroblasts, dose response, counter-screen, cell-based, ATP luminescence, mouse fibroblasts (AID 2010); assay type: functional; settings: NIH3T3;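 note: cells exposed to compound for about 90 hours before reading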
[9] = biological target: T1, Polyadenylate-binding protein 1; assay: PABP1 MLLE–PAM2 binding inhibitor potency, dose response, biochemical, fluorescence polarization, FITC-PAM2 peptide (AID 602259); assay type: functional; settings: read-out: IC50_Mean
[10] = biological target: Beta-galactosidase (Escherichia coli, UniProt Q8VNN2); assay: beta-galactosidase enzyme inhibitors and activators, dose response, artefact control for CCR6 antagonist project, biochemical, E. coli enzyme, set 3 (AID 504712); assay type: functional
[11] = inhibitors of intracellular T. cruzi replication, confirmation, NIH3T3 host cells, beta-gal luminescence (AID 2044); assay type: functional, cell-based;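 note: intracellular parasites grown in NIH/3T3 mouse fibroblasts as host cells; luminescent beta-galactosidase reporter signal from transgenic T. cruzi replicating inside host cells; inhibitors lower the luminescence signal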
[12] = cytotoxicity in MIN6 insulinoma cells, dose response, cytotoxicity control, cell-based, mouse insulinoma (AID 2122); assay type: functional;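 note: confirmatory high-throughput counterscreen run to flag cytotoxic compounds; mouse MIN-6 beta cells carrying an insulin promoter eGFP reporter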
[13] = biological target: Induced myeloid leukemia cell differentiation protein Mcl-1 (Homo sapiens, UniProt Q07820); assay type: functional
[14] = insulin promoter down-regulators in MIN6 cells, imaging, high-content screening, mouse beta cells (AID 1628); assay type: functional
[15] = biological target: Cytochrome P450 2C9 (Homo sapiens, UniProt P11712)
[16] = biological target: T2, Cytochrome P450 3A4; remark: listed apart in the source
[17] = biological target: Cytochrome P450 2C19 (Homo sapiens, UniProt P33261); assay: Cytochrome panel assay with activity outcomes. Panel member name: p450-cyp2c19 Compounds with AC50 equal or less than 10 uM are considered active; assay type: functional; settings: read-out: AC50
[18] = biological target: Dual specificity protein phosphatase 6 (Rattus norvegicus, UniProt Q64346); assay type: functional;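 note: confirmatory in vitro dose-response testing of MKP-3 inhibition; recombinant His-tagged MKP-3 made in E. coli BL21 with OMFP substrate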
[19] = biological target: T3, Tyrosine-protein phosphatase non-receptor type 7 (Homo sapiens, UniProt P35236); assay: redox-dependent HePTP inhibition, mechanism study, biochemical, fluorescence (AID 2068); assay type: functional
T3 sequence (P35236 whole entry): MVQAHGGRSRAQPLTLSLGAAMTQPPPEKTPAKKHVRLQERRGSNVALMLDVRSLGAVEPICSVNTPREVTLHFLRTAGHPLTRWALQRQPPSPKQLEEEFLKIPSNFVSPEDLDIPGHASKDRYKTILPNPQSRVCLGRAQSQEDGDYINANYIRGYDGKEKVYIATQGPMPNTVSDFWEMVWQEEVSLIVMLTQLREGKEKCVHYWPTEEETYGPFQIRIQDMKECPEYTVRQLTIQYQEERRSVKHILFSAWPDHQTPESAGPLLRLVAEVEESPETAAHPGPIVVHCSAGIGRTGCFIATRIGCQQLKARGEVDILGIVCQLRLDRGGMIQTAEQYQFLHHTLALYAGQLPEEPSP

[20] = biological target: T4, Dual specificity protein phosphatase 3 (Homo sapiens, UniProt P51452); assay: SAR VHR1 absorbance Assay for In Vitro dose response studies. [Related pubchem assays (depositor defined):AID1654, AID1661, AID1878, AID1992, AID2004]
[21] = biological target: T4, Dual specificity protein phosphatase 3; assay: SAR VHR1 Fluorescent Assay for In Vitro dose response studies. [Related pubchem assays (depositor defined):AID1654, AID1661, AID1878, AID1992, AID2004, AID2070, AID2085]; assay type: functional

T4 sequence (P51452 whole entry): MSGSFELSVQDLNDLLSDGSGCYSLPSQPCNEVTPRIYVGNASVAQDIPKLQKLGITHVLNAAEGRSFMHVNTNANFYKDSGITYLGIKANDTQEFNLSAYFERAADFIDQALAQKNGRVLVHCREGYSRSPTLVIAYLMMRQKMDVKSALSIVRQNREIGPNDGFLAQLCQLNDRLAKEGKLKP
T1 sequence (P11940 whole entry): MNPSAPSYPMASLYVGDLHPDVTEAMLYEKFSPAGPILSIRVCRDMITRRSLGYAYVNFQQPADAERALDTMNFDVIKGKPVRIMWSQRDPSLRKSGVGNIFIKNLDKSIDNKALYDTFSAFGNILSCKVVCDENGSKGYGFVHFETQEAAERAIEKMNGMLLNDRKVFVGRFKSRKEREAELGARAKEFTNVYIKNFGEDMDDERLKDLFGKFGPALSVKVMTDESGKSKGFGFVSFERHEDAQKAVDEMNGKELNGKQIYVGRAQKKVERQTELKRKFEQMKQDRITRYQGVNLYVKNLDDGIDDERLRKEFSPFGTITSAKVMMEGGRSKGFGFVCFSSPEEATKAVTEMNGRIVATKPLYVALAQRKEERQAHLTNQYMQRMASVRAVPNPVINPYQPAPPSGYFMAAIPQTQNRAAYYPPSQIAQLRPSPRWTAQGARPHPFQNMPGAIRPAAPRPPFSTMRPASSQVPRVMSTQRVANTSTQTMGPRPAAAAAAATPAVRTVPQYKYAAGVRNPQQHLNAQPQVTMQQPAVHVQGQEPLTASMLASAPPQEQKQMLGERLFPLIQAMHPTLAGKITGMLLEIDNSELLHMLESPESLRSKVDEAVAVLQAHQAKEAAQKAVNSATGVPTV
T2 sequence (P08684 whole entry): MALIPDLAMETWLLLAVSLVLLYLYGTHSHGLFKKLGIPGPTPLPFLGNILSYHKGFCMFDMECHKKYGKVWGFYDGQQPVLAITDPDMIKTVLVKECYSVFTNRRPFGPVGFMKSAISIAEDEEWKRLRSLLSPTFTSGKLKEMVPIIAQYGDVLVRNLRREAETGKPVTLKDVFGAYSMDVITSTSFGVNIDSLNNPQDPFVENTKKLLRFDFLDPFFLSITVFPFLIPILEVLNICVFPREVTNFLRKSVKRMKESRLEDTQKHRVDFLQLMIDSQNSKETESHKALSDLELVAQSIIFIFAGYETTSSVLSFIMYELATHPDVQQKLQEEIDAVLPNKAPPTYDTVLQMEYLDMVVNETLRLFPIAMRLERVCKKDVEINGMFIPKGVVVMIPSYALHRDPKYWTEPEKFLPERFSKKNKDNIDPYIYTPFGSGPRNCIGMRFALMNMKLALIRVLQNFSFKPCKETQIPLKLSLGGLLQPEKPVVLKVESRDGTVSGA
Chain of Cytochrome P450 2C9 (P11712 whole entry): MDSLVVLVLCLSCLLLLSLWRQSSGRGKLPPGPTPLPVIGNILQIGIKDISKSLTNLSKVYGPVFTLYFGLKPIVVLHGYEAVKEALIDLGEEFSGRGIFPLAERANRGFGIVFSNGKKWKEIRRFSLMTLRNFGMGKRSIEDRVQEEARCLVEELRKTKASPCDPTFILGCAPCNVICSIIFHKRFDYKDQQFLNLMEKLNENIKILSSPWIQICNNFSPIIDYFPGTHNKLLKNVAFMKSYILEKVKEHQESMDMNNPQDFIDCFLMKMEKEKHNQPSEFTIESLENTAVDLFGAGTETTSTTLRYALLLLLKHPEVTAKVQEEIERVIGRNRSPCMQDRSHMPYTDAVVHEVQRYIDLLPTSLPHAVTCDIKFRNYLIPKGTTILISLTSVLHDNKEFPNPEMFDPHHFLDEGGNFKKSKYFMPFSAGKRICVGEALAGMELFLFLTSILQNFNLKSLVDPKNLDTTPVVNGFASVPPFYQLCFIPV
Chain of Cytochrome P450 2C19 (P33261 whole entry): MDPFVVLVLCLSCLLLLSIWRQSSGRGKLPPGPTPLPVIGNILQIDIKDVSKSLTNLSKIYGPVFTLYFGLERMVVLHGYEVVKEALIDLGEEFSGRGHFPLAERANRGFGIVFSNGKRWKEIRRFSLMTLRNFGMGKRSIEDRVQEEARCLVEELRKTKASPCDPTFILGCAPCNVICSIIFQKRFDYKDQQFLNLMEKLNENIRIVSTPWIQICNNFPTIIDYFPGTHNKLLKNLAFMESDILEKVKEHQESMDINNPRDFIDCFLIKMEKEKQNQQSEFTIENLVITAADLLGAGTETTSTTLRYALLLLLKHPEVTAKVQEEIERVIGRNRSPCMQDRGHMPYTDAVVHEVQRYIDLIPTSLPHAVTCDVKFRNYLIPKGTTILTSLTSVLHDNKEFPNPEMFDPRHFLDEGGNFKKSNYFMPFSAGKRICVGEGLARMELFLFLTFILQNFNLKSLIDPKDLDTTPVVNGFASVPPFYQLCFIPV
Chain of Beta-galactosidase (Q8VNN2 whole entry): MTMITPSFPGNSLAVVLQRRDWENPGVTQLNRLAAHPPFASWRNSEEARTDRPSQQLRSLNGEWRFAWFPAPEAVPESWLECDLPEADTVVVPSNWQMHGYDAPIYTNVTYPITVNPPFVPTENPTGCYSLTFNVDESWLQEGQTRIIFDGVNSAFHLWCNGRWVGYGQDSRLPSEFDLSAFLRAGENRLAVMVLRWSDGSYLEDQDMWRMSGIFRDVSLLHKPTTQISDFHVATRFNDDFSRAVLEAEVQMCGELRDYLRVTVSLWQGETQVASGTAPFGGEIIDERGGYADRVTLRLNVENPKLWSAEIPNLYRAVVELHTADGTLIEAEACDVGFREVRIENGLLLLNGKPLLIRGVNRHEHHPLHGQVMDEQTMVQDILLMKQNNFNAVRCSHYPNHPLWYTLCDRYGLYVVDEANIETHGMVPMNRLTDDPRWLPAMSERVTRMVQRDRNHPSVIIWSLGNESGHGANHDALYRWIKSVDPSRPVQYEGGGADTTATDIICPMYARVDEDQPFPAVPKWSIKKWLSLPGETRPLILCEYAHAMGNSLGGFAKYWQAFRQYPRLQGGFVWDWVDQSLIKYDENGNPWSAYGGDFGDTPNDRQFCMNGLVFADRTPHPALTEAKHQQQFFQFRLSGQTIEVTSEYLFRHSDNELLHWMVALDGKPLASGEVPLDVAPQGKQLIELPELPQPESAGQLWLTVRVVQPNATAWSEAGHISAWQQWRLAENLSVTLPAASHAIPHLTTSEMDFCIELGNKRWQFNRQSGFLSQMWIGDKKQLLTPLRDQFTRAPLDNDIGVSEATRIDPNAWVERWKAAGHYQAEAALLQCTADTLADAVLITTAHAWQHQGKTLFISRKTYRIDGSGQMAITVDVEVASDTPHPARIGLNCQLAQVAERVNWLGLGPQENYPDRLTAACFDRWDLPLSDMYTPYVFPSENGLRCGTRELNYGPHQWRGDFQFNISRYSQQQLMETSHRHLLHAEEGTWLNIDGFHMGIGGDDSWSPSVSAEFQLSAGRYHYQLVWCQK
Chain of Glucose-6-phosphate 1-dehydrogenase (P11413 whole entry): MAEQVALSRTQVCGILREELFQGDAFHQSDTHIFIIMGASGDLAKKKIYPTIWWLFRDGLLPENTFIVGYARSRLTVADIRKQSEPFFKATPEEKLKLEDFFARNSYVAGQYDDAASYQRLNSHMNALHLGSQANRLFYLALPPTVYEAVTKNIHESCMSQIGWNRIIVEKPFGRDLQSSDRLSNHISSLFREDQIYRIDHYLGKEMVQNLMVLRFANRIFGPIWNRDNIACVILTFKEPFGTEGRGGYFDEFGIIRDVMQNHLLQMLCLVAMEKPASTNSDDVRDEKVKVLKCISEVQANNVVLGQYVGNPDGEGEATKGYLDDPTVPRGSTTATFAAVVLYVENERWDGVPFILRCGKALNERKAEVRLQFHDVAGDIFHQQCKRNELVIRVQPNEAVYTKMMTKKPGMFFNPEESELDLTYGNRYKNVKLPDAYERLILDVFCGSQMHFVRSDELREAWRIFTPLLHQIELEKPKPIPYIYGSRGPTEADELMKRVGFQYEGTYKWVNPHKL
Chain of Induced myeloid leukemia cell differentiation protein Mcl-1 (Q07820 whole entry): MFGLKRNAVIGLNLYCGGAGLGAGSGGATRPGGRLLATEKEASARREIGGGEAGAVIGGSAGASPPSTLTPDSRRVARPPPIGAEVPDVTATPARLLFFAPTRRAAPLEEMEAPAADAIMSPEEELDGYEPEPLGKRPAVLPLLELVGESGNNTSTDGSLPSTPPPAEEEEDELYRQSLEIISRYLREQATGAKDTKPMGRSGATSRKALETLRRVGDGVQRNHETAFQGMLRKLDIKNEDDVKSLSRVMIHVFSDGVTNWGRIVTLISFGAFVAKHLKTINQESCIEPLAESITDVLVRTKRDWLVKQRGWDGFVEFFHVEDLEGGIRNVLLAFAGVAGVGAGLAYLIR
Chain of Cytochrome P450 2D6 (P10635 whole entry): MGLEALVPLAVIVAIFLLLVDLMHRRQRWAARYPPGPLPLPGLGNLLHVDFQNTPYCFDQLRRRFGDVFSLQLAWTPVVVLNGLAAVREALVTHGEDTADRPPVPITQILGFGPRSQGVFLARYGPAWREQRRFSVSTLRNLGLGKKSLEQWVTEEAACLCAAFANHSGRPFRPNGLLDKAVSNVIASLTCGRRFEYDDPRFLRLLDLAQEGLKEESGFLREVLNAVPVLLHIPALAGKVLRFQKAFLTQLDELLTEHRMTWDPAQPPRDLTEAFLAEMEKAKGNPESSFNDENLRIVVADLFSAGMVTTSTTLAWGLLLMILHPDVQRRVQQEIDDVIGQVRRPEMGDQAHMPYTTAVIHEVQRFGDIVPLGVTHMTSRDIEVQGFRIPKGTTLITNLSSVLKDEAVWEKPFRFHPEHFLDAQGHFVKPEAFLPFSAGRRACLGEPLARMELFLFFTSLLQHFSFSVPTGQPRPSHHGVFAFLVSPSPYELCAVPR

Question: With Cc1cc(NNC(=O)Nc2cccc(Cl)c2)nc2c1c(C)nn2C as the compound, how does the IC50 [1] read?
Answer: > 80 µM (inactive)

Question: What about the IC50 [2] of the same compound?
Answer: 46.2 µM (inactive)

Question: With Cc1cc(O)c(-c2cc(O)c(C)cc2O)cc1O as the compound, how does the IC50 [3] read?
Answer: > 66 µM (inactive)

Question: What about the IC50 [4] of the same compound?
Answer: 39.8 µM (active)

Question: What about the IC50 [5] of the same compound?
Answer: 11.1 µM (active)

Question: And the AC50 [6]?
Answer: inconclusive

Question: What about the AC50 [7] of the same compound?
Answer: 1.58 µM (inconclusive)

Question: What about the EC50 [8] of the same compound?
Answer: 4.13 µM (active)

Question: What about the IC50 [9] of the same compound?
Answer: > 66 µM (inactive)

Question: What about the IC50 [10] of the same compound?
Answer: > 66.6 µM (inactive)

Question: And the EC50 [11]?
Answer: 2.37 µM (active)

Question: With O=C(Nc1ccc(N2CCOCC2)cc1)Nc1ccc2nc(-c3ccco3)c(-c3ccco3)nc2c1 as the compound, how does the IC50 [12] read?
Answer: 3.55 µM (active)

Question: What about the IC50 [13] of the same compound?
Answer: 0.894 µM (active)

Question: What about the IC50 [14] of the same compound?
Answer: 1.91 µM (active)

Question: For CCOc1ccc(CSC(CC(=O)O)C(=O)O)cc1 (stereo unspecified), which AC50 [15] is on record?
Answer: 15.8 µM (inconclusive)

Question: What about the AC50 [16] of the same compound?
Answer: inconclusive

Question: What about the AC50 [17] of the same compound?
Answer: 14.1 µM (inconclusive)

Question: With CN(C)C(=O)c1cn(CCOc2ccccc2)c2ccccc12 as the compound, how does the IC50 [18] read?
Answer: > 100 µM (inactive)

Question: And the IC50 [19]?
Answer: > 100 µM (inactive)

Question: What about the IC50 [20] of the same compound?
Answer: > 100 µM (inactive)

Question: And the IC50 [21]?
Answer: > 100 µM (inactive)
